{
  "source": "patent US20020018762A1",
  "about": "“Utilizing camptotheca products for termite control” (priority 2000, published 2002)",
  "key": {"[1]": {"tested_on": "subterranean termites", "conditions": "for Damage to the treated wood sample: 4-week observation period; for Termites dead within 24 hours: of 30 termites", "description": "180 active subterranean termites, were grown in 9 cm Petri dishes in the dark with 30 termites in each of six dishes. In each dish, a filter paper is on the bottom to retain moisture along with a piece of treated southern yellow pine wood (relatively fresh, 3×3×7 cm). The wood was treated with one of the following natural products isolated from Camptotheca acuminata or water (as control) for 30 minutes and then dried: (1) pure CPT (>97%) (3.8 mg/l=3.8 ppm, with water as the solvent); (2) OHCPT (10-hydroxycamptothecin: 3.8 mg/l=3.8 ppm, with water as the solvent); (3) raw extraction of CPTs from young tissues (alkaloids: 8.75 mg/l=8.75 ppm, with 95% ethanol as the solvent); (4) flavonoids (13.9 mg/l=13.9 ppm with water as the solvent); (5) ethanol (95%); and (6) water (control). The termites and wood condition were checked and recorded every hour for the first 12 hours and every 8 hrs thereafter. The observation period was 4 weeks (May 20 to Jun. 17, 2000)."}, "[2]": {"tested_on": "termites (including drywood termite, Incistermes snyderi)", "assay": "Field test of termite resistance of sprayed southern yellow pine boards (Example 3)", "type": "in vivo", "description": "There were 4 treatments including 3 pieces of sound southern yellow pine boards (30×9×4 cm) each. The wood was treated with either a natural product isolated from Camptotheca acuminata or water as a control. […] The boards were randomly placed on the ground where no termites were observed. The wood condition and termite activity were checked and recorded every week beginning May 20, 2000."}, "[3]": {"assay": "Effect of the particleboard process on CPT content (FIG. 4)", "type": "physicochemical", "conditions": "heat and pressure pressing", "excerpt": "Particleboard is an engineered wood product used as core material in the construction of home and office furniture, shelving and kitchen cabinets, as well as commercial and institutional fixtures. The major source for the manufacture of particleboard is southern yellow pine. Termite-resistant particleboard is not available. The present invention provides a method of preparing termite-resistant particleboards by including 30-70% Camptotheca wood in combination with currently-existing particleboard materials, e.g., pine, in a process as shown in Example 6. […] Similarly, the CPT content 260 in the raw material from bark and wood 290 and the particleboard from bark and wood 300 remained the same after the particleboard process.\nTermite-resistant particleboards were prepared in accordance with the invention, using southern yellow pine mixed with natural Camptotheca acuminata wood after extraction of flavonoids. Six 5-year-old Camptotheca acuminata trees were harvested. The wood materials were classified into: trunk wood without bark, trunk wood with bark, branch wood without bark, and branch wood with bark. The sample materials were chipped and milled into uniformly small particles (20-30 mesh) and soaked in water for a week. The southern yellow pine wood was prepared in the same size as the control sample. […]"}, "[4]": {"assay": "Water soak of Camptotheca stakes, HPLC analysis of extracted flavonoids and CPTs (Example 5, FIG. 3)", "type": "physicochemical", "excerpt": "For example, the Camptotheca wood containing CPTs (CPT concentrations: 30-100 ppm) after extraction of flavonoids may be used in preparation of termite-resistant wood products such as composition boards, particleboards, and fiberboards. FIG. 3 illustrates the effect of a water soak on the content of flavonoids and CPT over time.\nIn July 2000, we conducted an experiment with several pieces of Camptotheca stakes (c. 10 cm in length and 3 cm in diameter) soaked in nanopure water. A month later, water samples were collected from the water with stakes and only water (as control) for HPLC analysis."}, "[5]": {"tested_on": "Masson pine caterpillar (Dendrolimus punctatus)", "conditions": "cited from earlier work"}, "[6]": {"tested_on": "subterranean termites (Reticultitermes virginicus)", "description": "60 active subterranean termites (Reticultitermes virginicus) were grown in 9 cm Petri dishes in dark with 15 termites (10 soldiers and 5 workers) in each of four dishes. In each dish, a filter paper is placed on the bottom of the dish to retain moisture along with a piece of treated southern yellow pine wood (decayed, 3×3×7 cm). The wood was treated with one of the following natural products isolated from Camptotheca acuminata or water (as control) for 30 minutes and then dried: (1) pure CPT (>97%) (camptothecin, 3.8 mg/l=3.8 ppm, with water as the solvent); (2) raw extraction of CPTs from young tissues (alkaloids: 8.75 mg/l=8.75 ppm, with 95% ethanol as the solvent); (3) flavonoids (13.9 mg/l=13.9 ppm with water as the solvent); and (4) water (control). The termites and wood condition were checked and recorded every hour for the first 12 hours and every 8 hrs thereafter. The observation period was 4 weeks (May 17 to Jun. 14, 2000)."}, "[7]": {"conditions": "30 termites per dish, CPT 3.8 ppm, OHCPT 3.8 ppm, raw CPTs 8.75 ppm, flavonoids 13.9 ppm, ethanol 95%"}, "[8]": {"conditions": "15 termites per dish, wood treated 30 min, CPT 3.8 ppm, raw CPTs 8.75 ppm, flavonoids 13.9 ppm"}},
  "note": "Where two headings read alike, the source gives them in different places.",
  "data": [
    {"molecule": "CCO", "note": "[Ethanol, ethanol]", "values": [
      {"measurement": "Damage to the treated wood sample", "setting": "[1]", "value": "No wood damage"},
      {"measurement": "Mortality within 1 week", "setting": "[1]; in vivo", "value": 100, "unit": "%"},
      {"measurement": "Mortality within 4 weeks", "setting": "[1]; in vivo", "value": 100, "unit": "%"}
    ]},
    {"molecule": "CC[C@@]1(O)C(=O)OCc2c1cc1n(c2=O)Cc2cc3ccccc3nc2-1", "note": "[CPT, camptothecin]", "values": [
      {"measurement": "Termite damage of treated wood (based on weight)", "setting": "[2]; field, three months, CPT 380 ppm, raw CPTs 8.75 ppm, flavonoids 13.9 ppm", "value": "no termite damage"},
      {"measurement": "Termite damage of treated southern yellow pine lumber in the field", "setting": "[2]; within 3 months", "value": "damage-free"},
      {"measurement": "Damage to the treated wood sample", "setting": "[1]", "value": "no obvious damage"},
      {"measurement": "Time within which termite mortality was 100%", "setting": "[1]; 30 termites per dish", "value": "≤ 5", "unit": "days"},
      {"measurement": "Mortality within 1 week", "setting": "[1]; [7]", "value": 100, "unit": "%"},
      {"measurement": "Mortality within 4 weeks", "setting": "[1]; [7]", "value": 100, "unit": "%"},
      {"measurement": "Time after which all termites became inactive", "setting": "[1]; CPT 3.8 ppm", "value": 10, "unit": "h"},
      {"measurement": "Termite behaviour toward the treated wood (repellency / attraction)", "setting": "[1]; in vivo", "value": "avoided getting close to the wood after the initial contract"},
      {"measurement": "Termites dead within 24 hours", "setting": "[1]", "value": 12},
      {"measurement": "Effect of particleboard process on CPT content", "setting": "[3]", "value": "no significant effect"},
      {"measurement": "Extraction by water soak at day 7 (FIG. 3)", "setting": "[4]; day 7", "value": "not extracted"},
      {"measurement": "Extraction by water soak at day 30 (FIG. 3)", "setting": "[4]; day 30", "value": "remains water insoluble"},
      {"measurement": "Hatchability of eggs", "setting": "[5]; after treatment with 0.05% CPT", "value": "decreased"},
      {"measurement": "Mortality of insect larvae, pupae, and adults", "setting": "[5]; after treatment with CPT", "value": "increased"},
      {"measurement": "Damage to the treated wood sample", "setting": "[6]; 4-week observation period", "value": "no obvious damage"},
      {"measurement": "Time within which termite mortality was 100%", "setting": "[6]; 15 termites per dish, CPT 3.8 ppm, raw CPTs 8.75 ppm", "value": "≤ 4", "unit": "days"},
      {"measurement": "Mortality within 1 week", "setting": "[6]; [8]", "value": 100, "unit": "%"},
      {"measurement": "Mortality within 4 weeks", "setting": "[6]; [8]", "value": 100, "unit": "%"},
      {"measurement": "Mortality within 1 week", "setting": "[6]; 15 termites per dish, wood treated 30 min, CPT 3.8 ppm, raw CPTs 8.75 ppm, flavonoids 13.9 ppm, listed as purified CPT", "value": "all termites dead"},
      {"measurement": "Time after which termites became inactive", "setting": "[6]; CPT 3.8 ppm", "value": 6, "unit": "h"},
      {"measurement": "Termites dead within 36 hours", "setting": "[6]; of total 15 termites, CPT 3.8 ppm", "value": "Six"},
      {"measurement": "Termite damage of treated pine stakes within a week", "setting": "[6]; summary of Examples 1 and 2", "value": "damage free"}
    ]},
    {"molecule": "CC[C@@]1(O)C(=O)OCc2c1cc1n(c2=O)Cc2cc3cc(O)ccc3nc2-1", "note": "[OHCPT, 10-hydroxycamptothecin]", "values": [
      {"measurement": "Damage to the treated wood sample", "setting": "[1]", "value": "no obvious damage"},
      {"measurement": "Time within which termite mortality was 100%", "setting": "[1]; 30 termites per dish", "value": "≤ 6", "unit": "days"},
      {"measurement": "Mortality within 1 week", "setting": "[1]; [7]", "value": 100, "unit": "%"},
      {"measurement": "Mortality within 4 weeks", "setting": "[1]; [7]", "value": 100, "unit": "%"},
      {"measurement": "Termites dead within 24 hours", "setting": "[1]", "value": 16}
    ]}
  ]
}
